# Results taken from patent US20030171382A1, “Pharmaceutical composition for regeneration of cirrhotic liver” (priority 2002, published 2003).
# Like-named read-outs stand apart in the source and are kept apart here. Marks after values point to notes of the source that are not given here.
# Columns and labels:
# cirrhotic rats [1] = conditions: 3 times a week for 4 weeks, untreated approximately 56% of normal
# Description: (§1) Sprague-Dawley rats that were 6 weeks old and 140-160 g were used in the examples below.
# Cirrhosis is not only responsible for diminishing of a liver's function, but also for atrophy of the liver tissues. […] Since weight loss accompanies cirrhosis, in order to standardize the test results, the weight of the brain, which is normally not affected by cirrhosis, was used as the comparative weight to obtain the changes in the weights. The significance is indicated by ** p<0.01, compared to control and # p<0.05 compared to rats with cirrhosis.
# rats with cirrhosis [2] = conditions: 3 times a week for 4 weeks; for Fibrosis Scores / Knodell Scores: group with cirrhosis; for Fibrosis Scores: scale 0-4, untreated 3.8 ± 0.2; for Knodell Scores: untreated 14.0 ± 0.8
# Description: as §1
# (§2) By continually administering rats with dimethylnitrosamine (DMN) 3 times a week for 4 weeks, test models of cirrhotic livers were achieved. At such time, the rats showing only indications of liver fibrosis were placed in a separate group from rats showing indications of cirrhosis, and the survival rates of rats with cirrhosis and rats with liver fibrosis were studied during the next 4 weeks.
# The histopathological effect of oltipraz on cirrhosis was studied.
# (§3) The curative effect of oltipraz on liver cirrhosis was histopathologically determined through fibrosis scores taken after Masson's trichrome staining and through Knodell scores which show the portal inflammation and the extent of fibrosis of the liver (FIG. 2, Table 1).
# (§4) Each value is represented by the average ± standard deviation. The number of animals used was 5 to 10. The significance of each group is determined by the paired Student's t-test. The significance is indicated by * p<0.05, ** p<0.01 compared to rats with cirrhosis or liver fibrosis. […] Degree of fibrosis 0=Normal, 1=Presence of weak fibrous tissue, 2=Presence of moderate fibrous tissue, 3=Presence of obvious fibrous tissue, 4=Evidence of severe fibrosis. Sum of values from periportal bridging (Greatest=10), intralobular cell loss (Greatest=4), portal inflammation (Greatest=4), and fibrosis (Greatest=4) yields the Knodell score.
# cirrhotic rats [3] = conditions: index 0-3, untreated 1.7
# Description: as §1
# Another representative clinical symptom of cirrhosis is the accumulation of ascites. […] The significance is indicated by ** p<0.01, compared to control and # p<0.05 compared to rats with cirrhosis.
# Thy1.1 and Flt-3 = conditions: cirrhotic rats, 30 mg/kg, 3 times a week for 4 weeks; compared to untreated cirrhotic rats
# Description: The cells, which regenerate to liver tissues, are known to originate from stem cells.
# PCNA [4] = conditions: cirrhotic rats, 30 mg/kg, 3 times a week for 4 weeks; compared to cirrhotic rat without oltipraz
# Description: PCNA immunochemical analysis is done with a specific antibody for PCNA (Santa Cruz Biotech). Analysis was carried out by indirect Avidin-Biotin-Alkaline-Phosphatase technique, according to the protocol provided by the manufacturer (InnoGenex). […] By using blocking serum, nonspecific antibody bindings were prevented. Then, in a humidified chamber, the slices were incubated with antibodies for 30 minutes at room temperature. After the incubation, Phosphate Buffered Saline (PBS) with 0.1% Tween-20 was used to rinse the slides. The slices were subjected to biotinylated 2nd antibodies and reacted for 5 minutes at 37° C. followed by additional reaction for 5 minutes at 37° C. with streptavidin-conjugated alkaline phosphatase added. Then, 5-bromo-4-chloro-3-indolyl-phosphate (BCIP) and nitro-blue-tetrazolium (NBT) were used as the phosphatase substrate to be incubated with the slices on the slide until proper colors became visible. Afterwards, the slices were again stained with nuclear fast red.
# cirrhotic rats [5] = conditions: 30 mg/kg, 3 times a week for 4 weeks
# Description: as §1
# Ascites are formed when the synthesis of the blood plasma protein (especially albumin) is reduced in the liver tissues, bringing a disturbance in maintaining the equilibrium of the osmotic pressure in the blood. […] The significance is indicated by ** p<0.01, compared to control and # p<0.05 compared to rats with cirrhosis.
# PCNA [6] = conditions: cirrhotic rats, 30 mg/kg, 3 times a week for 4 weeks; versus control or untreated cirrhotic rats
# Description: Nuclear fractions of the liver from the control rats, cirrhotic rats and oltipraz administered (30 mg/kg, 3 times a week for 4 weeks) cirrhotic rats were dissolved in a diluting solution containing sodium dodecyl sulfate (SDS) to form a sample and stored at −70° C. After SDS-polyacrylamide gel electrophoresis, immunoblot analysis was carried out. The sample was fractionated by using 12% gel electrophoresis and electrically transferred to nitrocellulose membrane. The nitrocellulose membrane was incubated with polyclonal mouse anti-PCNA antibody (1:1000) (Santa Cruz Biotech) and then incubated again with horseradish peroxidase-conjugated secondary antibody. Lastly, ECL chemiluminescence kit manufactured by Amersham company was used to develop the band.
# cirrhotic rats [7] = conditions: 30 mg/kg, 3 times a week for 4 weeks; remark: listed apart in the source
# Description: as §1
# The left side of FIG. 4b is a photograph of liver tissue, obtained after administration of oltipraz to cirrhotic rats, taken following Masson's trichrome staining.
# rats with cirrhosis [8] = conditions: for ALT in blood plasma / AST in blood plasma / Bilirubin in blood plasma / Cholesterol in blood plasma: group with cirrhosis; for ALT in blood plasma: untreated 138 ± 14, control 55 ± 4; for AST in blood plasma: untreated 275 ± 36, control 141 ± 18; for Bilirubin in blood plasma: untreated 2.7 ± 0.8, control 1.1 ± 0.1; for Cholesterol in blood plasma: untreated 152 ± 30, control 97 ± 6
# Description: as §1
# When the rats were administered with 15 mg/kg of oltipraz, 3 times a week for 4 weeks, the ALT and AST activity in the blood plasma was reduced, and when administered with 30 mg/kg, approximately 70% of the AST value lowered, showing a statistical significance (Table 2).
# The amount of bilirubin in blood plasma is an indicator of the liver's capacity.
# Each value is represented by the average ± standard deviation. The number of animals used was 8 to 11. The significance of each group is determined by the paired Student's t-test. The significance is indicated by * p<0.05, compared to control and # p<0.05 compared to rats with cirrhosis.
# C/EBP-β and C/EBP-α [9] = conditions: primary cultured hepatocytes, 30 μM
# C/EBP = conditions: hepatocytes isolated from cirrhotic rats incubated with oltipraz
# C/EBP-β = conditions: rat hepatocytes, 30 μM for 6 hours
# Description: Afterwards, to study whether oltipraz promotes translocation of C/EBP-β to the nucleus, rat hepatocytes were incubated with oltipraz at the concentration of 30 μM for 6 hours.
# c-Met = conditions: cirrhotic rats, 30 mg/kg, 3 times a week for 4 weeks; versus un-administered rats
# Description: c-Met is a Hepatocyte Growth Factor (HGF) receptor, applicable in proliferation and differentiation of the liver cells. […] When c-Met is not appropriately present, even with the presence of HGF, liver tissues will not form.
# rats with liver fibrosis [10] = conditions: 30 mg/kg 3 times a week
# Description: as §1, §2
# rats with cirrhosis [11] = conditions: cirrhotic rats, 30 mg/kg, 3 times a week for 4 weeks; without oltipraz 48% after 4 weeks
# Description: as §1, §2
# rats with liver fibrosis [12] = conditions: group with fibrosis; for Fibrosis Scores: scale 0-4, untreated 2.2 ± 0.5; for Knodell Scores: untreated 6.0 ± 1.2
# Description: as §1, §2, §3, §4
# C/EBP-β and C/EBP-α [13] = conditions: cirrhotic rats, 30 mg/kg, 3 times a week for 4 weeks
# Description: With the importance of C/EBP in the regulation of liver regeneration in mind, the expression of C/EBP-β and C/EBP-α in oltipraz administered (30 mg/kg, 3 times a week for 4 weeks) cirrhotic rats were examined.
# [14] = 15 mg/kg, 3 times a week for 4 weeks, 15 mg/kg
# [15] = 15 mg/kg, 3 times a week for 4 weeks, listed as oltipraz, 15 mg/kg
smiles,measurement,setting,value
"Cc1c(-c2cnccn2)ssc1=S [Oltipraz, 5-(2-pyrazinyl)-4-methyl-1,2-dithiol-3-thione]",liver weights,cirrhotic rats [1]; 15 mg/kg,recovered almost to the normal weights
same,liver weights,cirrhotic rats [1]; 30 mg/kg,recovered almost to the normal weights
same,accumulation of fibers in liver tissue,"rats with cirrhosis [2]; cirrhotic rats, 15 or 30 mg/kg",reduced in a dose-dependent manner
same,Fibrosis Scores,rats with cirrhosis [2]; 15 mg/kg,2.9 ± 0.4
same,Knodell Scores,rats with cirrhosis [2]; 15 mg/kg,8.7 ± 1.1**
same,Fibrosis Scores,rats with cirrhosis [2]; 30 mg/kg,2.8 ± 1.1*
same,Knodell Scores,rats with cirrhosis [2]; 30 mg/kg,6.8 ± 2.5**
same,ascites formation index,cirrhotic rats [3]; 15 mg/kg,0.9
same,ascites formation index,cirrhotic rats [3]; 30 mg/kg,0.4
same,number of cells containing Thy1.1 and Flt-3,Thy1.1 and Flt-3,considerable decline
same,occurrence of PCNA (cells with PCNA),PCNA [4],approximately twice more frequent
same,amount of albumin in the blood plasma,cirrhotic rats [5],normal albumin content was recovered
same,expression of PCNA (36 kDa band intensity),PCNA [6],significant increase in the expression of PCNA
same,division of the liver cells,cirrhotic rats [7],clearly shows the dividing cells
same,total cholesterol level in blood plasma,rats with cirrhosis [8]; cirrhotic rats treated with oltipraz (dose not given),did not show noticeable change
same,AST value lowered,"rats with cirrhosis [8]; cirrhotic rats, 30 mg/kg",approximately 70%
same,amount of bilirubin in blood plasma,"rats with cirrhosis [8]; cirrhotic rats, oltipraz administration (dose not given)",tended to be reduced
same,ALT in blood plasma,rats with cirrhosis [8]; [14],124 ± 47
same,ALT in blood plasma,rats with cirrhosis [8]; [15],reduced
same,AST in blood plasma,rats with cirrhosis [8]; [14],206 ± 24
same,AST in blood plasma,rats with cirrhosis [8]; [15],reduced
same,Bilirubin in blood plasma,rats with cirrhosis [8]; 15 mg/kg,1.8 ± 0.4
same,Cholesterol in blood plasma,rats with cirrhosis [8]; 15 mg/kg,116 ± 9
same,Bilirubin in blood plasma,rats with cirrhosis [8]; 30 mg/kg,1.4 ± 0.2
same,ALT in blood plasma,rats with cirrhosis [8]; 30 mg/kg,110 ± 39
same,Cholesterol in blood plasma,rats with cirrhosis [8]; 30 mg/kg,104 ± 7
same,AST in blood plasma,rats with cirrhosis [8]; 30 mg/kg,185 ± 22^#
same,amount of C/EBP-α in the nucleus of the liver cells,C/EBP-β and C/EBP-α [9],gradually increased
same,amount of C/EBP-β in the nucleus of the liver cells,C/EBP-β and C/EBP-α [9],gradually increased
same,amount of C/EBP in the nucleus,C/EBP,no significant change was observed
same,translocation of C/EBP-β to the nucleus,C/EBP-β,clearly promoted translocation
same,expression of c-Met,c-Met,noticeably greater
same,death of rats,rats with liver fibrosis [10],no death
same,survival rate,rats with cirrhosis [11],83%
same,Fibrosis Scores,rats with liver fibrosis [12]; 15 mg/kg,2.8 ± 0.4
same,Knodell Scores,rats with liver fibrosis [12]; 15 mg/kg,7.0 ± 1.2
same,Fibrosis Scores,rats with liver fibrosis [12]; 30 mg/kg,1.0 ± 0.0**
same,Knodell Scores,rats with liver fibrosis [12]; 30 mg/kg,2.6 ± 0.4*
same,appearance of liver-enriched inhibitory protein (LIP),C/EBP-β and C/EBP-α [13],almost completely disappeared
same,expression of C/EBP-α,C/EBP-β and C/EBP-α [13],noticeably recovered
same,expression of C/EBP-β,C/EBP-β and C/EBP-α [13],increased
